{"source": "patent US4594337A", "about": "“Methods of controlling mycoplasma infections” (Eli Lilly and Company, priority 1985, dated 1986)", "type_in_all_cases": "cell-based", "key": {"[1]": {"tested_on": "Mycoplasma gallisepticum 38502", "experiment": "MIC, conventional broth-dilution microtiter test, Mycoplasma gallisepticum 38502 (tylosin-susceptible)", "conditions": "Mycoplasmoides gallisepticum, Mycoplasma gallisepticum 38502, tylosin-susceptible strain", "description": "(§1) The MIC's in Table I were obtained using a conventional broth-dilution microtiter test."}, "[2]": {"tested_on": "Mycoplasma hyopneumoniae S-5972", "experiment": "MIC, conventional broth-dilution microtiter test, Mycoplasma hyopneumoniae S-5972", "conditions": "Mesomycoplasma hyopneumoniae, S5972", "description": "as §1"}, "[3]": {"tested_on": "Mycoplasma gallisepticum 34159", "experiment": "MIC, conventional broth-dilution microtiter test, Mycoplasma gallisepticum 34159 (tylosin-resistant)", "conditions": "Mycoplasmoides gallisepticum, Mycoplasma gallisepticum 34159, tylosin-resistant strain", "description": "as §1"}, "[4]": {"tested_on": "Mycoplasma synoviae 46995", "experiment": "MIC, conventional broth-dilution microtiter test, Mycoplasma synoviae 46995", "conditions": "Mycoplasmopsis synoviae", "description": "as §1"}, "[5]": {"tested_on": "Mycoplasma gallisepticum 41313", "experiment": "MIC, conventional broth-dilution microtiter test, Mycoplasma gallisepticum 41313 (tylosin-resistant)", "conditions": "Mycoplasmoides gallisepticum, Mycoplasma gallisepticum 41313, tylosin-resistant strain", "description": "as §1"}, "[6]": {"tested_on": "Mycoplasma hyorhinis S-41313", "experiment": "MIC, conventional broth-dilution microtiter test, Mycoplasma hyorhinis S-41313", "conditions": "S41313", "description": "as §1"}}}
{"smiles": "CCCC(=O)OC1C(C)OC(OC2C(C)OC(OC3C(CC=O)CC(C)C(=O)C=CC(C)=CC(COC4OC(C)C(O)C(O)C4OC)C(CC)OC(=O)CC(OC(C)=O)C3C)C(O)C2N(C)C)CC1(C)O", "note": "(stereo not shown) [3-Acetyl-4\"-(n-Butyryl)-macrocin, 3-O-acetyl-4\"-O-(n-butyryl)macrocin]", "values": [{"measurement": "MIC", "setting": "[1]", "value": 0.195, "unit": "mg/L"}, {"measurement": "MIC", "setting": "[2]", "value": 0.048, "unit": "mg/L"}, {"measurement": "MIC", "setting": "[3]", "value": 6.25, "unit": "mg/L"}, {"measurement": "MIC", "setting": "[4]", "value": "≤ 0.048", "unit": "mg/L"}, {"measurement": "MIC", "setting": "[5]", "value": 3.12, "unit": "mg/L"}, {"measurement": "MIC", "setting": "[6]", "value": 0.39, "unit": "mg/L"}]}
{"smiles": "CCC1OC(=O)CC(OC(C)=O)C(C)C(OC2OC(C)C(OC3CC(C)(O)C(OC(=O)CC(C)C)C(C)O3)C(N(C)C)C2O)C(CC=O)CC(C)C(=O)C=CC(C)=CC1COC1OC(C)C(O)C(O)C1OC", "note": "(stereo not shown) [3-Acetyl-4\"-Isovaleryl-macrocin, 3-O-acetyl-4\"-O-isovalerylmacrocin]", "values": [{"measurement": "MIC", "setting": "[1]", "value": "≤ 0.048", "unit": "mg/L"}, {"measurement": "MIC", "setting": "[2]", "value": 0.048, "unit": "mg/L"}, {"measurement": "MIC", "setting": "[3]", "value": 3.12, "unit": "mg/L"}, {"measurement": "MIC", "setting": "[4]", "value": "≤ 0.048", "unit": "mg/L"}, {"measurement": "MIC", "setting": "[5]", "value": 3.12, "unit": "mg/L"}, {"measurement": "MIC", "setting": "[6]", "value": 0.39, "unit": "mg/L"}]}
{"smiles": "CCC1OC(=O)CC(OC(C)=O)C(C)C(OC2OC(C)C(OC3CC(C)(O)C(O)C(C)O3)C(N(C)C)C2O)C(CC=O)CC(C)C(=O)C=CC(C)=CC1COC1OC(C)C(O)C(O)C1OC", "note": "(stereo not shown) [3-Acetyl-macrocin, 3-O-Acetylmacrocin]", "values": [{"measurement": "MIC", "setting": "[1]", "value": 0.78, "unit": "mg/L"}, {"measurement": "MIC", "setting": "[3]", "value": 50, "unit": "mg/L"}, {"measurement": "MIC", "setting": "[4]", "value": 0.39, "unit": "mg/L"}, {"measurement": "MIC", "setting": "[5]", "value": 50, "unit": "mg/L"}, {"measurement": "MIC", "setting": "[6]", "value": 6.25, "unit": "mg/L"}]}
{"smiles": "CCC1OC(=O)CC(OC(C)=O)C(C)C(OC2OC(C)C(O)C(N(C)C)C2O)C(CC=O)CC(C)C(=O)C=CC(C)=CC1COC1OC(C)C(O)C(O)C1OC", "note": "(stereo not shown) [3-Acetyl-lactenocin, 3-O-Acetyllactenocin]", "values": [{"measurement": "MIC", "setting": "[1]", "value": 0.78, "unit": "mg/L"}, {"measurement": "MIC", "setting": "[3]", "value": "> 50", "unit": "mg/L"}, {"measurement": "MIC", "setting": "[4]", "value": 0.39, "unit": "mg/L"}, {"measurement": "MIC", "setting": "[5]", "value": 50, "unit": "mg/L"}, {"measurement": "MIC", "setting": "[6]", "value": 25, "unit": "mg/L"}]}
